# Experiments:
# [1] = target: T1, WbDHFR (dihydrofolate reductase) (Wuchereria bancrofti, UniProt J9F199); assay: X-ray crystal structure ([…] Å) and tryptophan fluorescence equilibrium titration; format: binding; design: gene WUBG_00817; open reading frame with engineered N-terminal His6-tag
# [2] = target: T1, WbDHFR (dihydrofolate reductase); assay: biochemical; design: gene WUBG_00817
IC50 [2] [nM],SMILES,Kd [1] [nM]
–,NC(=O)C1=CN([C@@H]2O[C@H](COP(=O)(O)OP(=O)(O)OC[C@H]3O[C@@H](n4cnc5c(N)ncnc54)[C@H](OP(=O)(O)O)[C@@H]3O)[C@@H](O)[C@H]2O)C=CC1 [NADPH],90 ± 29
–,Nc1nc2ncc(CNc3ccc(C(=O)N[C@@H](CCC(=O)O)C(=O)O)cc3)nc2c(=O)[nH]1 [folate],23 ± 4
490 ± 160,"COc1cc(NCc2ccc3nc(N)nc(N)c3c2C)cc(OC)c1OC [TMX, trimetrexate]",–

# Source: article PMC10191325 (PLOS Neglected Tropical Diseases, 2023)
